Experimental data as given in patent US6723702B2, “Use of relaxin treat diseases related to vasoconstriction” (RAS Medical, Inc., priority 2000, dated 2004).

Legend:
conscious rats = assay: Acute infusion of L-NAME during chronic infusion of purified porcine RLX; format: in vivo, rat
Description: At least 7 days after the implantation of vascular and bladder catheters, osmotic minipumps containing either porcine RLX (4 μg/hour) or vehicle (Ringer's solution) were implanted in intact, female rats (n=7 and 6 rats, respectively). Renal function and MAP were measured on day 5 of relaxin infusion (three 30-minute urine and midpoint blood collections). Next, an infusion of L-NAME (2 μg/minute, a substrate competitive inhibitor of NO synthase) was administered intravenously (i.v.) by infusion pump (Model 200, KD Scientific, Boston, Mass.). Four 1-hour urine collections with midpoint blood samples were collected for the assessment of GFR, ERPF, and ERVR during the L-NAME administration. Identical procedures were performed on additional animals chronically administered porcine RLX (n=5) or vehicle (n=5), except that ANG II (3 ng/minute) was infused rather than L-NAME. Finally, another four, age-matched control rats were administered Ringer's solution instead of either L-NAME or ANG II on day 5 of porcine RLX infusion.
MAP, GFR, ERPF, and ERVR were measured at time zero (baseline), and at 60, 120, 180, and 240 minutes after administering L-NAME and either RLX or vehicle alone. Values represent the mean±SEM. L-NAME (Nω-nitro-L-arginine methyl ester) was infused at 2 μg/minute intravenously, and relaxin was administered at 4 μg/hour by osmotic minipump subcutaneously. There were 7 and 6 rats, respectively, in the RLX and vehicle groups. An asterisk denotes p<0.05; the symbol H denotes p<0.05 for RLX vs. vehicle.

db/db mice = assay: Full thickness wound healing in db/db mice; format: in vivo, mouse; conditions: PDGF 5 μg/wound/day for 5 days
Description: To determine whether rhRlx would improve healing in this model of impaired healing, standardized full thickness (1.5 cm×1.5 cm) wounds were made on the back of db/db mice (Jackson Laboratories, Bar Harbor, Me.). Mice were treated continuously for 21 days with rhRlx via a subcutaneously implanted Alzet pump at a dose of either 0.1 mg/kg/day or 0.2 mg/kg/day. Wound areas were measured in the course of the study. Healing is presented as wound area on day 14 relative to the original size of the wound on day 0 and is calculated as: % of original wound area=[Area on day 14/area on day 0]×100. […] Wound closure was expressed as “% of original wound area.” There were 8-20 animals per group. Wound closure was 91.4% in control group vs. 64% in the relaxin-treated group (p<0.05 by Student-Newman-Kuels test). The differences in the extent of wound healing were small among vehicle control and low dose of rhRlx treatment as well as PDGF (5 μg/wound/day for 5 days) treated mice.
At day 21-post surgery, the wounds were also excised and fixed in formalin prior to paraffin embedding. Sections from the middle of the wound were stained with Masson's trichrome and evaluated by two investigators. […] Inflammatory cell accumulation was present at the wound edges.
Neovascularization is a key component of granulation tissue formation. New blood vessel formation is stimulated by a variety of growth factors including bFGF, and VEGF. […] Immunohistochemical staining of the midsection of full thickness wounds using polyclonal antibody to von Willebrand factor VIII-related antigen was used to identify new blood vessels in the wounds.

[1] = test system: Rat aortic adventitial fibroblasts; assay: Collagen and fibronectin expression by adventitial fibroblasts; format: cell-based
Description: Aortic adventitial fibroblasts from normal adult Sprague/Dawley rats were explanted by carefully dissecting the adventitia away from the media and culturing 1 mm^3 pieces in Dulbecco's modified Eagles Medium (DMEM), plus 10% bovine fetal calf serum. When cultures were confluent, fibroblasts were dispersed with trypsin and passaged once prior to use in experiments. Fibroblasts were seeded at 10^5 cells/cm^2 in DMEM+10% FBS in 48-well plates for experiments and assayed for collagen and fibronectin expression, as previously described (Unemori et al. (1996) J. Clin. Invest. 98:2739-2745). […] Half of the cultures were also treated simultaneously with 10 ng/ml of rhRlx. Proteins were biosynthetically labeled with ^3H-proline (25 μCi/ml) (Amersham Corp., Arlington Heights, Ill.), in the presence of ascorbate (50 μg/ml) and β-aminopropionitrile (80 μg/ml), and conditioned media collected 24 hours later. Media were electrophoresed on SDS-PAGE, and the density of collagen and fibronectin bands was determined by densitometric scanning using a digital imaging system (Alpha Innotech Corp, San Leandro, Calif.).

COC(=O)[C@@H](N)CCCNC(=N)N[N+](=O)[O-] [L-NAME, Nω-nitro-L-arginine methyl ester, reference compound]
renal vasodilation and hyperfiltration in the relaxin-treated rats (conscious rats; day 5 of porcine RLX infusion, L-NAME 2 μg/minute i.v.): completely abrogated | rise in MAP and ERVR, and reduction in GFR and ERPF (conscious rats; relaxin-treated compared to vehicle infused rats): significantly greater

PDGF [reference compound]
differences in the extent of wound healing vs vehicle control (db/db mice): small

TGF-β [reference compound]
expression of collagens, of control levels ([1]; TGF-β (20 ng/ml)): 484±67% | Fibronectin expression, of control levels ([1]; TGF-β treatment): 360±5%
